“Also recorded” adds a separate entry of the source. Where two headings read alike, the source gives them in different places.
Assays:
3T3-L1 cells [1] = experiment: Membrane damaging / cytotoxic effect on differentiated 3T3-L1 cells (light microscopy, CLSM phase contrast); format: cell-based, murine; conditions: for In vitro Cell damaging causing concentration: single agent
Method: In order to test in vitro the effects of phosphatidyl choline on the membrane integrity and stability, differentiated 3T3-L1 cells were incubated with different concentrations of phosphatidyl choline for 4 and 24 hours and then analyzed by light microscopy.
As a model system, the murine preadipocyte cell line 3T3-L1 was used for the studies. 3T3-L1 cells were stimulated to adipogenesis by a conventional hormone cocktail (corticosterone, isobutylmethylxanthine, indomethacin, insulin) and differentiated for another 8 days to mature adipocytes.
The mature adipocytes of the 3T3-L1 cells were treated with various concentrations of phosphatidyl choline.
First, a phosphatidyl choline stock solution was prepared: • 500 mg/ml phosphatidyl choline dissolved in 70% ethanol
The used concentrations of phosphatidyl choline were: • 1 mg/ml, 5 mg/ml, 10 mg/ml, 15 mg/ml, 20 mg/ml
FIG. 1a: Phase contrast images of treated differentiated 3T3-L1 cells in 2D cell culture. The treatment was as follows: • (a) control=untreated cells in differentiation medium • (b) 1 mg/ml of phosphatidyl choline after 24 hours • (b) 5 mg/ml of phosphatidyl choline after 24 hours • (d) 10 mg/ml of phosphatidyl choline after 24 hours • (e) 15 mg/ml of phosphatidyl choline after 24 hours • (f) 20 mg/ml of phosphatidyl choline after 24 hours • (Size bar=100 μm).
FIG. 1b: Phase contrast images using a CLSM at a 63-fold magnification of treated differentiated 3T3-L1 cells in 2D cell culture. The treatment was as follows: • (a) control=untreated cells in differentiation medium after 4 hours • (b) 1 mg/ml of phosphatidyl choline after 4 hours • (c) 5 mg/ml of phosphatidyl choline after 4 hours • (d) 10 mg/ml of phosphatidyl choline after 4 hours • (Size bar=20 μm).
As a model system the murine preadipocyte cell line 3T3-L1 was used for the studies. 3T3-L1 cells were stimulated by a hormone cocktail (corticosterone, isobutylmethylxanthine, indomethacin, insulin) to adipogenesis and differentiated for another 8 days to mature adipocytes.
The mature adipocytes of 3T3-L1 cells were incubated with various concentrations of phosphatidyl choline between 0.1 mg/ml and 50 mg/ml. The phosphatidyl choline was combined with 2-20 mg/ml glycyrrhizinate and 18-180 mg/ml maltose.
The incubation of mature 3T3-L1 cells was performed for a duration of 4 hours with the substances combination.
Then the treated cells were examined at a 63-fold magnification by light microscopy for a membrane destabilizing and cytotoxic effect.
FIG. 9: Phase contrast images of treated differentiated 3T3-L1 cells. 3T3-L1 were stimulated by a hormonal induction cocktail to adipogenesis and then differentiated for 8 days. The mature adipocytes were treated for 24 hours with phosphatidyl choline and sodium deoxycholate from Lipostabil® with the following concentrations: • (a) untreated cells in differentiation medium, • (b) 0.01 mg/ml phosphatidyl choline+0.005 mg/ml Na-deoxycholate, • (c) 0.1 mg/ml phosphatidyl choline+0.05 mg/ml Na-deoxycholate, • (d) 0.25 mg/ml phosphatidyl choline+0.125 mg/ml Na-deoxycholate, • (e) 0.5 mg/ml phosphatidyl choline+0.25 mg/ml Na-deoxycholate, • (f) 1 mg/ml phosphatidyl choline+0.5 mg/ml Na-deoxycholate.
The analysis was done using the light microscope. Cells with damaged membrane or cell fragments are marked examplary with black arrows, while free lipid droplets are indicated by white arrows.

[2] = tested on: Adipose-Derived Stem Cells (ADSC); experiment: Membrane damaging effect on differentiated ADSCs (light microscopy, CLSM); format: cell-based, human; conditions: 4 hours
From the text: The human subcutaneous adipose tissue can serve as a potential source of adult stem cells. These so-called “Adipose-Derived Stem Cells” (ADSC) are multipotent and may be differentiated by appropriate stimuli into various cell types, e.g. osteoblasts, chondrocytes, adipocytes. The isolation of ADSCs from human subcutaneous adipose tissue which is removed during plastic reductive surgery, is shown schematically in FIG. 2.
First the fat was washed with buffer to remove hematopoietic cells, and then crushed. The resulting pieces of fatty tissue were digested with collagenase. By centrifugation of the digested tissue the stromal-vascular fraction was separated and the floated mature adipocytes were discarded. The stromal-vascular fraction in the pellet is composed of a heterogeneous cell population of blood cells, fibroblasts, pericytes, endothelial cells and preadipocytes.
This cell population was transferred into a culture bottle with medium, wherein a portion of the cells adhered. By adding a suitable cocktail consisting of insulin, dexamethasone, indomethacin and isobutylmethylxanthine or consisting of insulin, cortisol, troglitazone, triiodothyronine and isobutylmethylxanthine the cells were stimulated for adipogenesis and an improved adipogenic differentiation was achieved.
The ADSCs of Example 4 were stimulated by a hormone cocktail (insulin, cortisol, troglitazone, triiodothyronine and isobutylmethylxanthine) to adipogenesis and then differentiated for another 21 days into mature adipocytes.
This was followed by a treatment with sodium deoxycholate. For this the following concentrations were used: • 0.01 mg/ml, 0.05 mg/ml, 0.075 mg/ml, 0.1 mg/ml and 0.5 mg/ml.
The incubation period was 4 hours.
This concentration range has been already proven to be effective in 3T3-L1. After the incubation period of 4 hours, the differentiated treated cells were subsequently viewed by light microscopy (FIG. 3a).
Additionally, ADSCs treated with sodium deoxycholate were examined with CLSM. The differentiated, mature adipocytes were treated with: • 0.01 mg/ml, 0.05 mg/ml and 0.1 mg/ml sodium deoxycholate for 4 hours.
This was followed by microscopic analysis with CLSM at a 63-fold magnification (FIG. 3b). […]

[3] = tested on: Adipose-Derived Stem Cells (ADSC); experiment: Propidium iodide (PI) staining of treated differentiated ADSCs (CLSM); format: cell-based, human
Method: Further analysis of the cell-damaging effect of sodium deoxycholate on ADSCs was performed by PI staining of the treated cells and subsequent analysis with CLSM. The differentiated, mature adipocytes were treated with: • 0.05 mg/ml, 0.1 mg/ml and 0.5 mg/ml sodium deoxycholate for 4 hours.
Then the cells were incubated in a medium containing 5 µg/ml propidium iodide for 5 minutes. This was followed by microscopic analysis with CLSM at a 63-fold magnification (FIG. 3c).
After the incubation period (4 hours) the adipocytes were stained with […] PI and analyzed with CLSM. In the upper PI-row (a-e) fluorescence images of PI-stained cells are shown. In the lower PK-row (a-e) the corresponding phase contrast images are presented with the overlapping fluorescence images over one another.
A further analysis of a cell-damaging effect of phosphatidyl choline on ADSCs was performed by PI staining of the treated cells and subsequent analysis with CLSM. The differentiated, mature adipocytes were treated with: • 5 mg/ml, 10 mg/ml and 15 mg/ml phosphatidyl choline for 4 hours.
Then the cells were incubated in a medium containing 5 μg/ml propidium iodide for 5 minutes. This was followed by microscopic analysis with CLSM at a 63-fold magnification (FIG. 4c).
After the incubation period (4 hours) the adipocytes were stained with 5 μg/ml PI and analyzed with CLSM. In the upper PI-row (a-e) fluorescence images of PI-stained cells are shown. In the lower PK-row (a-e) the corresponding phase contrast images are presented with the overlapping fluorescence images over one another (Size bar=20 μm).

3T3-L1 cells [4] = experiment: Lipolysis assay (glycerol release) with differentiated 3T3-L1 cells; format: cell-based, murine; conditions: 10 μM, 4 hours, 3% BSA/PBS; positive control
Method: 3T3-L1 cells were stimulated by a hormone cocktail to adipogenesis and differentiated for another 8 days to mature adipocytes. […] The lipolytic activity was measured using a lipolysis assay, as described below: The cleavage of triglycerides into glycerol and the three fatty acids is known as lipolysis. This process is catalyzed primarily by the hormone-sensitive lipase and the adipose triglyceride lipase. Using a lipolysis assay the lipolytic activity of cells can be detected. This assay is based on the measurement of glycerol emerged during lipolysis, which is secreted by the cells into the medium. The glycerol is metabolized by enzymatic reactions to glycerol-1-phosphate and then to dihydroxy acetone phosphate. Thereby hydrogen peroxide is produced, which is quantified photometrically with a peroxidase stain reaction. In order to be able to make statements about the lipolytic action of substances, they are compared with the basal lipolysis activity of the cells and with the lipolysis stimulated by the beta-adrenergic receptor. Such a stimulation can be caused by isoproterenol. FIG. 7: Graphical picture of the analysis of the lipolysis assay (μg glycerol/μg DNA) with treated differentiated 3T3-L1 cells. 3T3-L1 were stimulated by a hormonal induction cocktail to adipogenesis and then differentiated for 8 days. […]

sodium deoxycholate [Na-deoxycholate]
membrane damaging effect (3T3-L1 cells [1]; 0.05 mg/ml): membrane-damaging effects occurred
membrane damaging effect (3T3-L1 cells [1]; 0.5 mg/ml): highly toxic
effect on the cell membrane (3T3-L1 cells [1]; 20 mg/ml): clear destruction of the cell membrane
In vitro Cell damaging causing concentration (3T3-L1 cells [1]): ≥ 0.05 mg/mL
In vitro Cell damaging causing concentration (3T3-L1 cells [1]; listed as Na Deoxycholate): from 0.05 mg/ml
membrane damaging / cytotoxic effect ([2]; 0.01 mg/ml): no effect on the cells; also recorded: no cytotoxic effect
membrane damaging / cytotoxic effect ([2]; 0.05 mg/ml): slight damages of the cell membrane
membrane damaging / cytotoxic effect ([2]; 0.05 mg/ml, listed as Na-DC): injury
membrane damaging / cytotoxic effect ([2]; 0.1 mg/ml, CLSM): strong membrane damage
membrane damaging / cytotoxic effect ([2]; 0.5 mg/ml): significantly toxic effect on the cells
membrane damaging / cytotoxic effect ([2]; 0.5 mg/ml, listed as Na-DC): dead
PI staining (membrane integrity) ([3]; 0.05 mg/ml, 4 hours): no red-stained cells
PI staining (membrane integrity) ([3]; 0.1 mg/ml, 4 hours): individual red-stained cells
PI staining (membrane integrity) ([3]; 0.5 mg/ml, 4 hours): many and clearly red-stained cells
PI staining (membrane integrity) ([3]; 5, 10 and 15 mg/ml, 4 hours): no red-stained cells

CC(C)NCC(O)c1ccc(O)c(O)c1 (centres unmarked) [isoproterenol]
lipolytic activity compared to the basal level (3T3-L1 cells [4]): eight times the basal level

Triton
PI staining (membrane integrity) [3]: red cells stained by PI

Reference: patent US9399042B2, “Method for the removal of subcutaneous fat accumulations by subcutaneous lipolysis by administering a combination of glycyrrhizic acid and soybean phospholipids” (Lichtblick GmbH, priority 2010, dated 2016)
